Here are results for ten molecules from patent EP1254122B1, “NOVEL 3-SUBSTITUTED 1,2,4-BENZOTRIAZINES, A METHOD FOR THEIR PRODUCTION AND THE USE THEREOF” (UFZ-UMWELTFORSCHUNGSZENTRUM Leipzig-Halle GmbH, priority 1999, dated 2001).

Common to all, as to format: cell-based
The test system of assay [1] is HeLa. Put plainly: Inhibition of cell growth, HeLa cells. As to conditions: 37°C, three days, evaluated by microscope against untreated reference cells; for IC50: Homo sapiens, 72 h, read-out: IC50-Wert (50%ige Hemmung des Zellwachstums in µg/ml). How it is done:
(§1) Zu je 1 ml einer entsprechenden Zellstammlösung werden die zu testenden Substanzen in wäßriger steriler Lösung in Konzentrationsschritten von je 2-50 µg gespritzt. Die Testkammern werden anschließend zusammen mit einer unbehandelten Referenzkammer bei 37°C drei Tage entwickelt.
(§2) Die Auswertung erfolgt mittels Mikroskop. Es werden Zellvermehrung bzw. Zellzerstörung (Zustand der Zellmembran sowie des Zellkern) mit unbehandelten Referenzzellen verglichen. Tabelle: IC50-Wert (50%ige Hemmung des Zellwachstums in µg/ml) ausgewählter Substanzen der Formel I

Assay [2] concerns Hep2. Put plainly: Inhibition of cell growth, Hep2 cells. The following applies: 37°C, three days, evaluated by microscope against untreated reference cells; for IC50: Homo sapiens, HEp-2, 72 h, read-out: IC50-Wert (50%ige Hemmung des Zellwachstums in µg/ml). How it is done: as §1, §2
In assay [3] the test system is Peritoneal carcinom. Kind of assay: Inhibition of cell growth, peritoneal carcinoma cells. The following applies: 37°C, three days, evaluated by microscope against untreated reference cells; for IC50: 72 h, read-out: IC50-Wert (50%ige Hemmung des Zellwachstums in µg/ml). On the procedure: as §1, §2
The subject of assay [4] is permanenten Zellkulturen. Kind of assay: Inhibition of cell growth, permanent cell cultures (overall statement). As to conditions: result in words; HeLa-, Hep2-, Peritonealcarcinom- and Pleurocarcinomzellen. How it is done: as §1, §2
Die erfindungsgemäßen Verbindungen hemmen sämtlich das Zellwachstum von permanenten Zellkulturen wie z.B. von HeLa-, Hep2-Zellen, von Peritonealcarcinom- sowie von Pleurocarcinomzellen.

Assay [5] deals with Pleurocarcinom. Kind of assay: Inhibition of cell growth, pleural carcinoma cells. The following applies: 72 h, 37°C, three days, evaluated by microscope against untreated reference cells, read-out: IC50-Wert (50%ige Hemmung des Zellwachstums in µg/ml). How it is done:
as §1, §2

Values after ≈ are worked out from the molar mass of the structure shown.

In the case of “3-(D-galacto-Tetritol-1-yl)-1,2,4-benzotriazin [Verbindung i]”, the “IC50-Wert (50%ige Hemmung des Zellwachstums in µg/ml)” value in assay [1] came to 400 µg/mL.

Turning to `COC(=O)Cc1nnc2ccc(Cl)cc2n1` [Verbindung b, 3-(Methoxy-carbonylmethyl)-6-chlor-benzo-1,2,4-triazin], the “IC50-Wert (50%ige Hemmung des Zellwachstums in µg/ml)” value in assay [1] amounted to 160 µg/mL (≈ 673 µM); in assay [2] it was 120 µg/mL (≈ 505 µM); in assay [3] it was 150 µg/mL (≈ 631 µM).

Regarding `COC(=O)Cc1nnc2cccc(Cl)c2n1` [Verbindung c, 3-(Methoxy-carbonylmethyl)-5-chlor-benzo-1,2,4-triazin], the “IC50-Wert (50%ige Hemmung des Zellwachstums in µg/ml)” value in assay [1] was 8 to 16 µg/mL; in assay [2] it was 16 µg/mL (≈ 67.3 µM); in assay [3] it was 12 µg/mL (≈ 50.5 µM). Also, in assay [4], the “Hemmung des Zellwachstums (Wirksamkeit)” value is “bevorzugte Wirksamkeit”.

With `COC(=O)Cc1nnc2ccc(Cl)c(N)c2n1` [Verbindung d, 3-(Methoxy-carbonylmethyl)-5-amino-6-chlor-benzo-1,2,4-triazin], the figures for the “IC50-Wert (50%ige Hemmung des Zellwachstums in µg/ml)” value in assay [1] and in assay [3] were 50 µg/mL (≈ 198 µM) and 25 to 30 µg/mL, respectively.

For the molecule `COC(=O)Cc1nnc2ccccc2n1` [Verbindung e, 3-(Methoxy-carbonylmethyl)-1,2,4-benzotriazin], the IC50 amounted to 180 µg/mL (≈ 886 µM) in assay [1], 100 µg/mL (≈ 492 µM) in assay [2], 500 µg/mL (≈ 2460 µM) in assay [5] and 350 µg/mL (≈ 1720 µM) in assay [3].

Turning to `CCOC(=O)Cc1nnc2ccccc2n1` [Verbindung f, 3-(Ethoxy-carbonylmethyl)-1,2,4-benzotriazin], the IC50 in assay [1] is 378 µg/mL (≈ 1740 µM); in assay [2], 190 to 200 µg/mL (≈ 875 to 921 µM); in assay [5], 500 µg/mL (≈ 2300 µM); in assay [3], 180 µg/mL (≈ 829 µM).

Turning to `CCOC(=O)Cc1nnc2ccc(Br)cc2n1` [Verbindung g, 3-(Ethoxy-carbonylmethyl)-6-brom-benzo-1,2,4-triazin], the entries for the “IC50-Wert (50%ige Hemmung des Zellwachstums in µg/ml)” value in assay [1], in assay [2] and in assay [3] were 8 to 16 µg/mL, 8 to 16 µg/mL and 35 µg/mL (≈ 118 µM), respectively. Moreover, the “Hemmung des Zellwachstums (Wirksamkeit)” value in assay [4] is recorded as “bevorzugte Wirksamkeit”.

For `OC[C@@H](O)[C@@H](O)[C@H](O)c1nnc2ccccc2n1` [Verbindung h, 3-(D-arabino-Tetritol-1-yl)-1,2,4-benzotriazin], the IC50 in assay [1] and in assay [2] was 150 µg/mL (≈ 597 µM) in each case.

As for `OC[C@@H](O)[C@@H](O)[C@H](O)c1nnc2ccc(Cl)cc2n1` [Verbindung k, 3-(D-arabino-Tetritol-1-yl)-6-chlor-benzo-1,2,4-triazin], the “IC50-Wert (50%ige Hemmung des Zellwachstums in µg/ml)” value in assay [1] was 250 µg/mL (≈ 875 µM).

In the case of `CC(C)NC(=O)Cc1nnc2ccccc2n1` [Verbindung l, 3-(Isopropylamino-carbonylmethyl)-1,2,4-benzotriazin], the IC50 is 86 µg/mL (≈ 373 µM) in assay [1], 100 µg/mL (≈ 434 µM) in assay [2] and 170 µg/mL (≈ 738 µM) in assay [3]. In addition, the “Hemmung des Zellwachstums (Wirksamkeit)” value in assay [4] is “bevorzugte Wirksamkeit”.
